Data reported in patent US20140121181A1, “HYDROPHOBIC POLYMER COMPOUND HAVING ANTICOAGULANT EFFECT” (TORY INDUSTRIES, INC., priority 2011, published 2014).

Tested on: citric acid-supplemented blood collected from a volunteer
Assay: Measurement of whole blood coagulation time (Sonoclot, ACT ONSET value)
Design: species or system human
Procedure: In a cuvette (Non-activated Clotting Test Kit), 18 μL of physiological saline was placed and 14.8 μL of calcicol was added thereto, followed by further addition of 342 μL of the thus obtained citric acid-supplemented blood. The resulting mixture was measured using a Sonoclot blood coagulation/platelet function analyzer (IMI Co., Ltd.) and the measured ACT ONSET value was defined as the whole blood coagulation time.

CC1CNc2c(cccc2S(=O)(=O)N[C@@H](CCCNC(=N)N)C(=O)N2CC[C@@H](C)C[C@@H]2C(=O)O)C1 (mixture of isomers) [argatroban, (2R,4R)-4-methyl-1-((2S)-2-{[(3RS)-3-methyl-1,2,3,4-tetrahydroquinolin-8-yl]sulfonyl}amino-5-guanidinopentanoyl)piperidine-2-carboxylic acid]
whole blood coagulation time (2 μM test solution/dispersion in place of physiological saline): 520 s
whole blood coagulation time (10 μM test solution in place of physiological saline): 734 s
whole blood coagulation time (20 μM test solution in place of physiological saline): 893 s
